Test results: patent US5985833A, “Thrombin inhibitor” (Wisconsin Alumni Research Foundation, priority 1996, dated 1999)
pIC50, pKd: −log10 of the molar value. “Also recorded” adds a separate entry of the source. Where a SMILES comes first, the peptide text is derived from it. Where no end group is shown, it is not given here. [ ]: non-standard residue; d: D form. sY = N[C@@H](Cc1ccc(OS(=O)(=O)O)cc1)C(=O)O

How the values were obtained:
thrombin [1] = molecular target: T1, thrombin (Homo sapiens, UniProt P00734); test: Peptide inhibition of 125I-PPACK-thrombin binding to peak 1 fibrin clot; conditions: for IC50 / inhibition of thrombin binding to peak 1 fibrin (in words): sulfated peptides; for IC50 for inhibition of thrombin binding to peak 1 fibrin (in words): non-sulfated γ' peptides containing 416 T→V and 420 S→A substitutions, FIG. 8
T1 construct: PPACK-thrombin was prepared by adding a five-fold molar excess of PPACK (Calbiochem, San Diego, Calif.) to α-thrombin; purchased Enzyme Research Laboratories, Inc., South Bend, Ind
Method: To determine the capacity of the peptides to inhibit thrombin binding, a 200 μl clot containing fibrin (0.5 nmoles) and ^125 I-PPACK-thrombin (0.1 nmoles) in 0.05M HEPES, 0.10M NaCl buffer, pH 7.4, and 0.01% (w/v) polyethylene glycol 8000 was formed in the presence of varying concentrations of peptide. The amount of thrombin bound to the clot was determined by counting the ^125 I radioactivity in a gamma counter. […] For most studies, peak 1 fibrin was used to assess the inhibitory capacity of the peptides. Similar qualitative thrombin-binding results were obtained using peak 2 fibrin (FIG. 6), but higher levels of peptide were needed to inhibit binding since this molecule contains the high affinity thrombin-binding site.

thrombin [2] = molecular target: T1, thrombin; test: Peptide inhibition of 125I-PPACK-thrombin binding to peak 2 fibrin clot; conditions: FIG. 6
thrombin [3] = conditions: cited from earlier work

Row | Molecule | IC50 for inhibition of thrombin binding to peak 1 fibrin (in words) (thrombin [1]) | IC50 / inhibition of thrombin binding to peak 1 fibrin (in words) (thrombin [1]; FIG. 7) | further results
1 | CC(C)[C@H](NC(=O)[C@H](CCC(=O)O)NC(=O)[C@H](C)NC(=O)[C@@H]1CCCN1C(=O)[C@H](Cc1c[nH]cn1)NC(=O)[C@H](CCC(=O)O)NC(=O)[C@@H]1CCCN1)C(=O)N[C@@H](CCC(=O)O)C(=O)N[C@@H](Cc1ccc(OS(=O)(=O)O)cc1)C(=O)O [γ' 410-418(416V), P E H P A E V E Y] (H-PEHPAEVE[sY]-OH) |  | neither the amino-terminal γ' 410-418(416V) nor the carboxy-terminalγ' 419-427(420A) segment of this peptide had any significant inhibition of thrombin binding | 
2 | CC(C)C[C@H](NC(=O)[C@H](CC(=O)O)NC(=O)[C@H](CC(=O)O)NC(=O)[C@H](CCC(=O)O)NC(=O)[C@@H]1CCCN1C(=O)[C@H](Cc1ccc(OS(=O)(=O)O)cc1)NC(=O)[C@H](CC(C)C)NC(=O)[C@H](C)NC(=O)[C@@H](N)CCC(=O)O)C(=O)O [γ' 419-427(420A), E A L Y P E D D L] (H-EAL[sY]PEDDL-OH) |  | nor the carboxy-terminalγ' 419-427(420A) segment of this peptide had any significant inhibition of thrombin binding | 
3 | AVRPEHPAETEYESLYPEDDL (AVRPEHPAETEYESLYPEDDL) [sulfated γ' A408-427] |  | similar | pIC50 (thrombin [2]; peak 2 fibrin, tyrosine-sulfated peptides): 4.85; inhibitory effect on thrombin binding to peak 2 fibrin (in words) (thrombin [2]; sulfated versus non-sulfated peptide): greater inhibitory effect
4 | AEVEYEALYPEDDL [γ' 414-427 (416V/420A), A E V E Y E A L Y P E D D L] | no significant increases in IC50; also recorded: lowest IC50 |  | 
5 | E H P A E T E F E S L Y P E D D L (EHPAETEFESLYPEDDL) [γ' 411-427/418F, tyrosine at 418 substituted with phenylalanine] |  | increase in IC50 compared with the doubly tyrosine-sulfated peptide; also recorded: lower IC50 than non-sulfated γ' A408-427 | 
6 | E H P A E T E Y E S L Y P E D D L (EHPAETEYESLYPEDDL) [sulfated γ' 411-427, doubly tyrosine-sulfated native γ' peptide] |  | Even greater inhibitory effects | IC50 / inhibition of thrombin binding to peak 1 fibrin (in words) (thrombin [1]; FIG. 7, listed as γ' 411-472): similar
7 | fibrinogen |  |  | Km (thrombin [3]; fibrinogen peptides or fibrinogen itself, read-out: Km estimated from peptide A release): 6 to 11 µM; pKd (thrombin [3]; substrate site, read-out: Kd derived from similar kinetic studies): 5.59 to 5.89

Second part, led by results:

Row | IC50 for inhibition of thrombin binding to peak 1 fibrin (in words) (thrombin [1]) | Molecule | IC50 / inhibition of thrombin binding to peak 1 fibrin (in words) (thrombin [1]; FIG. 7) | further results
8 | no significant increases in IC50 | EHPAEVEYEALYPEDDL [γ' 411-427 (416V/420A), E H P A E V E Y E A L Y P E D D L] |  | 
9 | no significant increases in IC50 | PEHPAEVEYEALYPEDDL [γ' 410-427 (416V/420A)] |  | 
10 | no significant increases in IC50 | VRPEHPAEVEYEALYPEDDL [γ' 408-427 (416V/420A), VRPEHPAEVEYEALYPEDDL] |  | 
